Patent publication US20230085307A1, “PYRIDAZINONE COMPOUND AND HERBICIDE” (NISSAN CHEMICAL CORPORATION, priority 2019, published 2023)

Legend:
barnyard grass [1] = test: Test Example 3: herbicidal effect by foliage application, Wagner pot (Table 18, symbol H); type: in vivo, barnyard grass (Echinochloa crus-galli); details: amount of applied herbicide 320 g/ha
Method in brief: (§1)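 Plants were sown in alluvial soil held under 0.1–0.5 cm standing water and grown 14 days in a greenhouse at 25–30 °C. An emulsifiable formulation, water-diluted to the set dose, was then sprayed onto the foliage, and effects were scored three weeks later using previously defined criteria.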

Chinese sprangletop = test: Test Example 3: herbicidal effect by foliage application, Wagner pot (Table 18, symbol D); type: in vivo, chinese sprangletop (Leptochloa chinensis); details: amount of applied herbicide 320 g/ha
Method in brief: as §1

rice flat sedge = test: Test Example 3: herbicidal effect by foliage application, Wagner pot (Table 18, symbol E); type: in vivo, rice flat sedge (Cyperus iria); details: amount of applied herbicide 320 g/ha
Method in brief: as §1

southern crabgrass = test: Test Example 5: herbicidal effect by foliage application, plastic box (Table 20, symbol F); type: in vivo, southern crabgrass (Digitaria ciliaris); details: foliage application, 320 g/ha, evaluated three weeks after application
Method in brief: (§2)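 Sow seeds spot-wise in sterilized diluvial soil; cover with ~1.5 cm soil. Grow 14 days in greenhouse, 25° C. to 30° C. Spray foliage with emulsion diluted to predetermined amount. Rate effect after 3 weeks.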

green foxtail = test: Test Example 5: herbicidal effect by foliage application, plastic box (Table 20, symbol G); type: in vivo, green foxtail (Setaria viridis); details: foliage application, 320 g/ha, evaluated three weeks after application
Method in brief: as §2

barnyard grass [2] = test: Test Example 5: herbicidal effect by foliage application, plastic box (Table 20, symbol H); type: in vivo, barnyard grass (Echinochloa crus-galli); details: foliage application, 320 g/ha, evaluated three weeks after application
Method in brief: as §2

wild oat = test: Test Example 5: herbicidal effect by foliage application, plastic box (Table 20, symbol I); type: in vivo, wild oat (Avena fatua); details: foliage application, 320 g/ha, evaluated three weeks after application
Method in brief: as §2

blackgrass = test: Test Example 5: herbicidal effect by foliage application, plastic box (Table 20, symbol J); type: in vivo, blackgrass (Alopecurus myosuroides); details: foliage application, 320 g/ha, evaluated three weeks after application
Method in brief: as §2

Italian ryegrass = test: Test Example 5: herbicidal effect by foliage application, plastic box (Table 20, symbol K); type: in vivo, Italian ryegrass (Lolium multiflorum); details: foliage application, 320 g/ha, evaluated three weeks after application
Method in brief: as §2

windgrass = test: Test Example 5: herbicidal effect by foliage application, plastic box (Table 20, symbol L); type: in vivo, windgrass (Apera spica-venti); details: foliage application, 320 g/ha, evaluated three weeks after application
Method in brief: as §2

velvetleaf = test: Test Example 5: herbicidal effect by foliage application, plastic box (Table 20, symbol M); type: in vivo, velvetleaf (Abutilon theophrasti); details: foliage application, 320 g/ha, evaluated three weeks after application
Method in brief: as §2

redroot pigweed = test: Test Example 5: herbicidal effect by foliage application, plastic box (Table 20, symbol N); type: in vivo, redroot pigweed (Amaranthus retroflexus); details: foliage application, 320 g/ha, evaluated three weeks after application
Method in brief: as §2

lambsquarters = test: Test Example 5: herbicidal effect by foliage application, plastic box (Table 20, symbol O); type: in vivo, lambsquarters (Chenopodium album); details: foliage application, 320 g/ha, evaluated three weeks after application
Method in brief: as §2

chickweed = test: Test Example 5: herbicidal effect by foliage application, plastic box (Table 20, symbol P); type: in vivo, common chickweed (Stellaria media); details: foliage application, 320 g/ha, evaluated three weeks after application
Method in brief: as §2

persian speedwell = test: Test Example 5: herbicidal effect by foliage application, plastic box (Table 20, symbol R); type: in vivo, Persian speedwell (Veronica persica); details: foliage application, 320 g/ha, evaluated three weeks after application
Method in brief: as §2

## CCCC(=O)Oc1c(C)nn(C)c(=O)c1-c1c(-c2ccc([N+](=O)[O-])cc2)sc2ccc(C)cc12 [2-145]
Barnyard grass [1]
  herbicidal effect on H: barnyard grass: 3 (Herbicidal rate of 40% or more and less than 70%)
Chinese sprangletop
  herbicidal effect on D: Chinese sprangletop: 0 (Herbicidal rate of 5% or less (almost no effect))
Rice flat sedge
  herbicidal effect on E: rice flat sedge: 4 (Herbicidal rate of 70% or more and less than 90%)
Southern crabgrass
  herbicidal effect on F: southern crabgrass (criteria 0-5): 1 (Herbicidal rate of 5% or more and less than 20%)
Green foxtail
  herbicidal effect on G: green foxtail (criteria 0-5): 3 (Herbicidal rate of 40% or more and less than 70%)
Barnyard grass [2]
  herbicidal effect on H: barnyard grass (criteria 0-5): 3 (Herbicidal rate of 40% or more and less than 70%)
Wild oat
  herbicidal effect on I: wild oat (criteria 0-5): 0 (Herbicidal rate of 5% or less (almost no effect))
blackgrass
  herbicidal effect on J: blackgrass (criteria 0-5): 0 (Herbicidal rate of 5% or less (almost no effect))
Italian ryegrass
  herbicidal effect on K: Italian ryegrass (criteria 0-5): 3 (Herbicidal rate of 40% or more and less than 70%)
windgrass
  herbicidal effect on L: windgrass (criteria 0-5): 0 (Herbicidal rate of 5% or less (almost no effect))
velvetleaf
  herbicidal effect on M: velvetleaf (criteria 0-5): 4 (Herbicidal rate of 70% or more and less than 90%)
Redroot pigweed
  herbicidal effect on N: redroot pigweed (criteria 0-5): 4 (Herbicidal rate of 70% or more and less than 90%)
lambsquarters
  herbicidal effect on O: lambsquarters (criteria 0-5): 4 (Herbicidal rate of 70% or more and less than 90%)
chickweed
  herbicidal effect on P: chickweed (criteria 0-5): 5 (Herbicidal rate of 90% or more (almost completely withered))
Persian speedwell
  herbicidal effect on R: persian speedwell (criteria 0-5): 5 (Herbicidal rate of 90% or more (almost completely withered))

## COc1ccc(-c2sc3ccc(C)cc3c2-c2c(O)c(C)nn(C)c2=O)cc1OC [2-152]
Barnyard grass [1]
  herbicidal effect on H: barnyard grass: 0 (Herbicidal rate of 5% or less (almost no effect))
Chinese sprangletop
  herbicidal effect on D: Chinese sprangletop: 0 (Herbicidal rate of 5% or less (almost no effect))
Rice flat sedge
  herbicidal effect on E: rice flat sedge: 3 (Herbicidal rate of 40% or more and less than 70%)
Southern crabgrass
  herbicidal effect on F: southern crabgrass (criteria 0-5): 0 (Herbicidal rate of 5% or less (almost no effect))
Green foxtail
  herbicidal effect on G: green foxtail (criteria 0-5): 0 (Herbicidal rate of 5% or less (almost no effect))
Barnyard grass [2]
  herbicidal effect on H: barnyard grass (criteria 0-5): 0 (Herbicidal rate of 5% or less (almost no effect))
Wild oat
  herbicidal effect on I: wild oat (criteria 0-5): 0 (Herbicidal rate of 5% or less (almost no effect))
blackgrass
  herbicidal effect on J: blackgrass (criteria 0-5): 0 (Herbicidal rate of 5% or less (almost no effect))
Italian ryegrass
  herbicidal effect on K: Italian ryegrass (criteria 0-5): 2 (Herbicidal rate of 20% or more and less than 40%)
windgrass
  herbicidal effect on L: windgrass (criteria 0-5): 0 (Herbicidal rate of 5% or less (almost no effect))
velvetleaf
  herbicidal effect on M: velvetleaf (criteria 0-5): 0 (Herbicidal rate of 5% or less (almost no effect))
Redroot pigweed
  herbicidal effect on N: redroot pigweed (criteria 0-5): 0 (Herbicidal rate of 5% or less (almost no effect))
lambsquarters
  herbicidal effect on O: lambsquarters (criteria 0-5): 0 (Herbicidal rate of 5% or less (almost no effect))
chickweed
  herbicidal effect on P: chickweed (criteria 0-5): 5 (Herbicidal rate of 90% or more (almost completely withered))
Persian speedwell
  herbicidal effect on R: persian speedwell (criteria 0-5): 4 (Herbicidal rate of 70% or more and less than 90%)

## COc1cc(F)ccc1-c1sc2ccc(N(C)C(C)=O)cc2c1-c1c(O)c(C)nn(C)c1=O [2-177]
Barnyard grass [1]
  herbicidal effect on H: barnyard grass: 3 (Herbicidal rate of 40% or more and less than 70%)
Chinese sprangletop
  herbicidal effect on D: Chinese sprangletop: 4 (Herbicidal rate of 70% or more and less than 90%)
Rice flat sedge
  herbicidal effect on E: rice flat sedge: 3 (Herbicidal rate of 40% or more and less than 70%)
Southern crabgrass
  herbicidal effect on F: southern crabgrass (criteria 0-5): 0 (Herbicidal rate of 5% or less (almost no effect))
Green foxtail
  herbicidal effect on G: green foxtail (criteria 0-5): 3 (Herbicidal rate of 40% or more and less than 70%)
Barnyard grass [2]
  herbicidal effect on H: barnyard grass (criteria 0-5): 0 (Herbicidal rate of 5% or less (almost no effect))
Wild oat
  herbicidal effect on I: wild oat (criteria 0-5): 0 (Herbicidal rate of 5% or less (almost no effect))
blackgrass
  herbicidal effect on J: blackgrass (criteria 0-5): 3 (Herbicidal rate of 40% or more and less than 70%)
Italian ryegrass
  herbicidal effect on K: Italian ryegrass (criteria 0-5): 0 (Herbicidal rate of 5% or less (almost no effect))
windgrass
  herbicidal effect on L: windgrass (criteria 0-5): 3 (Herbicidal rate of 40% or more and less than 70%)
velvetleaf
  herbicidal effect on M: velvetleaf (criteria 0-5): 3 (Herbicidal rate of 40% or more and less than 70%)
Redroot pigweed
  herbicidal effect on N: redroot pigweed (criteria 0-5): 4 (Herbicidal rate of 70% or more and less than 90%)
lambsquarters
  herbicidal effect on O: lambsquarters (criteria 0-5): 3 (Herbicidal rate of 40% or more and less than 70%)
chickweed
  herbicidal effect on P: chickweed (criteria 0-5): 5 (Herbicidal rate of 90% or more (almost completely withered))
Persian speedwell
  herbicidal effect on R: persian speedwell (criteria 0-5): 4 (Herbicidal rate of 70% or more and less than 90%)
